Source: patent US20140051875A1, “CRYSTALLINE FORM OF MAXACALCITOL” (FORMOSA LABORATORIES INC., priority 2012, published 2014)
Read-outs that look alike come from different tables or passages of the source.

How the values were obtained:
[1] = cited from earlier work
[2] = Storage stability of maxacalcitol hydrate under an inert gas atmosphere; format: physicochemical; details: under an inert gas atmosphere at 25° C.
From the text: In a preferred embodiment, the maxacalcitol hydrate is stored in an amber vial.

| stability to storage: no degradation for (time) [2] | SMILES | stability: decomposed after storage (time) ([1]; amber vial under inert gas environment at 25° C.) | stability: stable for (storage time) ([1]; amber vial under inert gas environment at −20° C.) | stability: stable for (storage time) ([1]; amber vial under inert gas environment at −80° C.) | decomposition on storage ([1]; at 25° C., according to the JP interview form) |
| --- | --- | --- | --- | --- | --- |
| – | C=C1/C(=C\C=C2/CCC[C@]3(C)[C@@H]([C@H](C)OCCC(C)(C)O)CC[C@@H]23)C[C@@H](O)C[C@@H]1O [maxacalcitol, (+)-(5Z,7E,20S)-20-(3-Hydroxy-3-methylbutoxy)-9,10-secopregna-5,7,10(19)-triene-1α,3β-diol] | 4 weeks | 6 months | 36 months | considerable degree of decomposition |
| at least 32 days | C=C1/C(=C\C=C2/CCC[C@]3(C)[C@@H]([C@H](C)OCCC(C)(C)O)CC[C@@H]23)C[C@@H](O)C[C@@H]1O [maxacalcitol hydrate] | – | – | – | – |
